This note sets out measurements from ChEMBL document CHEMBL1131736, “Lipase-catalyzed protection of the hydroxy groups of the nucleosides inosine and 2'-deoxyinosine: a new chemoenzymatic synthesis of the antiviral drug 2',3'-dideoxyinosine” (Bioorg Med Chem Lett, 1999).

Active and inactive are the calls of the source. No cut-off for these calls is given here.

The assay relates to Human immunodeficiency virus 1. Description: Compound was tested for antiretroviral activity against HIV; compound found active. The format is functional, organism-based.

As for `O=c1[nH]cnc2c1ncn2[C@H]1CC[C@@H](CO)O1`, the result was Active.
